ChEMBL document CHEMBL3885861, “Open TG-GATES”

Organism: Rattus norvegicus
Assay: Open TG-GATES - Regimen: Single
Format: toxicity, organism-based, Sprague-Dawley
Parameters: regimen Single, gender Male, age 6 weeks
Details: in vivo, po, 0 mg/kg, route gavage, dose level Control; for APTT / Bas / Eos / Fbg / Hb / Ht / Lym / MCH / MCHC / MCV / Mono / Neu / PT / Plat / RBC / Ret / WBC: tissue Blood; for KIDNEY_L / KIDNEY_R / KIDNEY_TOTAL: tissue Kidney; for LIVER: tissue Liver; for A/G / ALP / ALT / AST / BUN / CRE / Ca / Cl / DBIL / GLC / IP / K / LDH / Na / PL / RALB / TBIL / TC / TG / TP / gamma-GTP: tissue Plasma

CCOC(=O)C(C)(C)Oc1ccc(Cl)cc1 [CLOFIBRATE]
TERMINAL_BW (3 h): 228.9 g
APTT (3 h): 18.8 s
Bas (3 h): 0%
Eos (3 h): 0.8%
Fbg (3 h): 234.6 mg/dL
Hb (3 h): 13.3 g/dL
Ht (3 h): 38.4%
Lym (3 h): 81.8%
MCH (3 h): 21.5 pg
MCHC (3 h): 34.9%
MCV (3 h): 61.6 fL
Mono (3 h): 2.4%
Neu (3 h): 14.4%
PT (3 h): 12.2 s
Plat (3 h): 137.2 x10_4/uL
RBC (3 h): 623.6 x10_4/ul
Ret (3 h): 7.6%
WBC (3 h): 86.9 x10_2/uL
KIDNEY_L (3 h): 0.9 g
KIDNEY_R (3 h): 0.9 g
KIDNEY_TOTAL (3 h): 1.8 g
LIVER (3 h): 10.8 g
A/G (3 h): 1.6
ALP (3 h): 1250.4 IU/L
ALT (3 h): 37.6 IU/L
AST (3 h): 75.6 IU/L
BUN (3 h): 11.6 mg/dL
CRE (3 h): 0.4 mg/dL
Ca (3 h): 11 mg/dL
Cl (3 h): 101.8 meq/L
DBIL (3 h): 0.4 mg/dL
GLC (3 h): 193.4 mg/dL
IP (3 h): 8.4 mg/dL
K (3 h): 3.8 meq/L
LDH (3 h): 218.8 IU/L
Na (3 h): 139 meq/L
PL (3 h): 184 mg/dL
RALB (3 h): 3.6 g/dL
TBIL (3 h): 0.4 mg/dL
TC (3 h): 79.8 mg/dL
TG (3 h): 233.2 mg/dL
TP (3 h): 5.8 g/dL
gamma-GTP (3 h): 1 IU/L
TERMINAL_BW (6 h): 225.4 g
APTT (6 h): 18.9 s
Bas (6 h): 0%
Eos (6 h): 1%
Fbg (6 h): 229.6 mg/dL
Hb (6 h): 13.7 g/dL
Ht (6 h): 39.7%
Lym (6 h): 76.8%
MCH (6 h): 20.9 pg
MCHC (6 h): 34.5%
MCV (6 h): 60.7 fL
Mono (6 h): 3.4%
Neu (6 h): 18.4%
PT (6 h): 12.5 s
Plat (6 h): 131.5 x10_4/uL
RBC (6 h): 654.6 x10_4/ul
Ret (6 h): 7.7%
WBC (6 h): 91.8 x10_2/uL
KIDNEY_L (6 h): 1 g
KIDNEY_R (6 h): 1 g
KIDNEY_TOTAL (6 h): 2 g
LIVER (6 h): 10 g
A/G (6 h): 1.7
ALP (6 h): 1002.8 IU/L
ALT (6 h): 31.2 IU/L
AST (6 h): 67.2 IU/L
BUN (6 h): 8.6 mg/dL
CRE (6 h): 0.3 mg/dL
Ca (6 h): 10.7 mg/dL
Cl (6 h): 103.2 meq/L
DBIL (6 h): 0.1 mg/dL
GLC (6 h): 192.2 mg/dL
IP (6 h): 8.8 mg/dL
K (6 h): 3.9 meq/L
LDH (6 h): 224 IU/L
Na (6 h): 140.4 meq/L
PL (6 h): 157.6 mg/dL
RALB (6 h): 3.5 g/dL
TBIL (6 h): 0.2 mg/dL
TC (6 h): 76.2 mg/dL
TG (6 h): 86 mg/dL
TP (6 h): 5.7 g/dL
gamma-GTP (6 h): 1 IU/L
TERMINAL_BW (9 h): 221.7 g
APTT (9 h): 18.1 s
Bas (9 h): 0%
Eos (9 h): 1%
Fbg (9 h): 234.4 mg/dL
Hb (9 h): 13.4 g/dL
Ht (9 h): 38.5%
Lym (9 h): 73.2%
MCH (9 h): 20.8 pg
MCHC (9 h): 34.9%
MCV (9 h): 59.7 fL
Mono (9 h): 2.6%
Neu (9 h): 22.8%
PT (9 h): 13 s
Plat (9 h): 137.3 x10_4/uL
RBC (9 h): 644.4 x10_4/ul
Ret (9 h): 7.1%
WBC (9 h): 78.9 x10_2/uL
KIDNEY_L (9 h): 0.9 g
KIDNEY_R (9 h): 1 g
KIDNEY_TOTAL (9 h): 1.9 g
LIVER (9 h): 9 g
A/G (9 h): 1.6
ALP (9 h): 1006.6 IU/L
ALT (9 h): 27 IU/L
AST (9 h): 63.6 IU/L
BUN (9 h): 11.2 mg/dL
CRE (9 h): 0.4 mg/dL
Ca (9 h): 10.2 mg/dL
Cl (9 h): 103 meq/L
DBIL (9 h): 0.082 mg/dL
GLC (9 h): 204.6 mg/dL
IP (9 h): 10.2 mg/dL
K (9 h): 3.7 meq/L
LDH (9 h): 223.8 IU/L
Na (9 h): 141.2 meq/L
PL (9 h): 136.8 mg/dL
RALB (9 h): 3.3 g/dL
TBIL (9 h): 0.1 mg/dL
TC (9 h): 64.2 mg/dL
TG (9 h): 68.2 mg/dL
TP (9 h): 5.5 g/dL
gamma-GTP (9 h): 0.8 IU/L
TERMINAL_BW (24 h): 236.7 g
APTT (24 h): 18.6 s
Bas (24 h): 0%
Eos (24 h): 1%
Fbg (24 h): 230.2 mg/dL
Hb (24 h): 13.7 g/dL
Ht (24 h): 39.5%
Lym (24 h): 80.8%
MCH (24 h): 20.7 pg
MCHC (24 h): 34.5%
MCV (24 h): 60 fL
Mono (24 h): 2.4%
Neu (24 h): 15.8%
PT (24 h): 12.5 s
Plat (24 h): 127.3 x10_4/uL
RBC (24 h): 659.8 x10_4/ul
Ret (24 h): 6.3%
WBC (24 h): 75.3 x10_2/uL
KIDNEY_L (24 h): 1 g
KIDNEY_R (24 h): 1 g
KIDNEY_TOTAL (24 h): 2 g
LIVER (24 h): 10.9 g
A/G (24 h): 1.5
ALP (24 h): 1006.2 IU/L
ALT (24 h): 34 IU/L
AST (24 h): 66.4 IU/L
BUN (24 h): 14.4 mg/dL
CRE (24 h): 0.4 mg/dL
Ca (24 h): 10.7 mg/dL
Cl (24 h): 102.2 meq/L
DBIL (24 h): 0.094 mg/dL
GLC (24 h): 191.2 mg/dL
IP (24 h): 7 mg/dL
K (24 h): 3.9 meq/L
LDH (24 h): 198.2 IU/L
Na (24 h): 140 meq/L
PL (24 h): 147.8 mg/dL
RALB (24 h): 3.3 g/dL
TBIL (24 h): 0.2 mg/dL
TC (24 h): 68.4 mg/dL
TG (24 h): 125.4 mg/dL
TP (24 h): 5.5 g/dL
gamma-GTP (24 h): 1 IU/L
